Reference: US20250303006A1, “BIOCOMPATIBLE ANTISEPTIC COMPOSITION CONTAINING 9-HYDROXYCALABAXANTHONE AND/OR RELATED XANTHONES” (UNIVERSITAT DE LES ILLES BALEARS, priority 2022, published 2025)

What was measured:
P. gingivalis = P. gingivalis culture and proliferation assay (growth rate, live/dead ratio); assay type: cell-based, Porphyromonas gingivalis; settings: 0.002% HCX, 10 h
Experimental: Bacterium P. gingivalis (ATCC 33277TM, Manassas, VA) was cultured in brain heart infusion (BHI) broth (Scharlab, Barcelona, Spain), supplemented with 0.5 g/l of L-cysteine hydrochloride (Thermo Fisher Scientific), 5.0 mg/I of hemin (Thermo Fisher Scientific), and 1.0 mg/I of vitamin K (Thermo Fisher Scientific) in anaerobic conditions (10% H2, 10% CO2, and 80% N2) achieved with an anaerobiosis sachet and jar (Oxoid Anaerogen™, Thermo Fisher Scientific) at 37° C. for 24-72 h.
Bacteria P. gingivalis were cultured from existing frozen bacteria in BHI broth. After one night of incubation, 1 ml of bacterial suspension (˜3×10^8 bacteria/ml) was treated with different concentrations of HCX (0.00002, 0.0002, 0.002%) for 10 hours in anaerobic conditions (10% H2, 10% CO2, and 80% N2) at 37° C. At regular intervals (0 h and 10 h), optical density (OD) was measured at 600 nm to determine bacterial proliferation (PowerWave Ht, Biotekinstruments, Winooski, VT). […] The proportion of living bacteria/dead bacteria was determined using the LIVE/DEAD BacLight bacterial viability kit (Invitrogen, Thermo Fisher Scientific, Waltham, MA, USA), following the manufacturer's instructions.
Two different concentrations of HA formulated with HCX (0.025 and 0.05%) were used in the present study. […]

[1] = tested on: human gingival fibroblast cells; experiment: LDH cytotoxicity in immortalized human gingival fibroblasts; assay type: cell-based
Experimental: Cells were seeded in 48-well plates at a density of 2×10^4 cells/well. When the cells reached confluence, they were treated with different concentrations of HCX, and cytotoxicity was determined.
48 hours after seeding the iHGF cells in 48-well plates, cell inflammation was induced by means of adding 1 μg/ml of P. gingivalis lipopolysaccharide (LPS) (InvivoGen, San Diego, CA, USA) and the cells were treated with different concentrations of HCX (0.00002, 0.0002, 0.002%) in a fibroblast medium with 50 μg/ml of ascorbic acid (Sigma-Aldrich, St. Louis, MO, USA) for 48 hours. Images of the cells were taken with a bright field inverted microscope (Nikon Eclipse TS100) before treatment and 24 hours and 48 hours after treatment.
To estimate the cytotoxicity of the different concentrations of HCX, the presence of lactate dehydrogenase (LDH) in the culture media 48 h after pro-inflammatory stimulation with LPS and treatment with HCX was used as the cell death index. Following the manufacturer's instructions (Cytotoxicity Detection kit, Roche Diagnostics, Mannheim, Germany), LDH activity was determined spectrophotometrically after a 30-minute incubation at room temperature (RT) of 50 μl of culture media and 50 μl of the reaction mixture, measuring nicotinamide adenine dinucleotide (NADH) oxidation at 490 nm in the presence of pyruvate. Results were presented in relation to LDH activity of the media of the cells seeded without treatment (negative control, 0% cell death) and in relation to cells treated with 1% Triton X-100 (positive control, 100% death) using the following equation: Cytotoxicity (%)=[(expected value−negative control)/(positive control−negative control)]×100.
Different hydrogel formulations with and without 0.05% of HCX (HA, GelMa, Alginate and HPMC) and commercial gel containing 0.2% chlorhexidine and unmodified HA (Periokin Hyaluronic 1%, Laboratorios Kin, Commercial HA 0.2% CHX) were used for studies with gingival fibroblasts and S. epidermidis. Cells and bacteria without hydrogels served as negative control (C−). Gels at a concentration of 5% (v/v) were used for cell and bacterial studies.
Immortalized human gingival fibroblasts were cultured like in experiment 1 of section 1.2. The cells were treated with different hydrogel formulations with and without 0.05% of HCX (HA, GelMa, Alginate and HPMC) and commercial gel containing 0.2% chlorhexidine and unmodified HA (Periokin Hyaluronic 1%, Laboratorios Kin, commercial HA 0.2% CHX) in a fibroblast medium for 24 hours (n=4). Cell cytotoxicity was measured, like in experiment 1 of section 1.4.
16.1. […]
Immortalized human gingival fibroblasts were cultured like in experiment 1 of section 1.2. […] Cell cytotoxicity was measured, like in experiment 1 of section 1.4.

C. albicans = experiment: Candida albicans culture and proliferation assay; assay type: cell-based; settings: 0.003% HCX, 24 h
Experimental: C. albicans was grown from frozen stocks in LB broth (Scharlab), at 37° C. under aerobic conditions in an orbital shaker (180 rpm). […] Fungal suspension without treatment served as negative control (C−). […] The fungal growth rate (μ) was calculated during the exponential growth phase following the equation ln ODt−ln OD0=μ×(t−t0) (n=3).

For `COc1c(O)cc2oc3cc4c(c(O)c3c(=O)c2c1CC=C(C)C)C=CC(C)(C)O4` [HCX, 9-hydroxycalabaxanthone], the bacteria eliminated (P. gingivalis) was 100%, the “cytotoxicity evaluated by activity of lactate dehydrogenase (LDH) released into the medium” value ([1]; HCX 0.00002, 0.0002, 0.002%, 48 h, LPS-stimulated iHGF) was “not observed” and the “concentration that can be applied to cells and tissues” value ([1]; formulated in solution) was “up to 0.002%”. The fungal eliminated (C. albicans) was 22%.
